Legend:
[1] = compound: CN(C)C/C=C/C(=O)Nc1ccc(C(=O)Nc2cccc(Nc3ncc(Cl)c(-c4c[nH]c5ccccc45)n3)c2)cc1 [THZ1]; assay: GR value, 72 h; higher = faster growth (1 = untreated, <0 = killing);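 further: breast cancer and non-malignant breast epithelial lines, nine half-log doses, viable cells counted by Hoechst and LIVE/DEAD dye imaging versus time-zero plates and DMSO controls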
[2] = compound: C=CC(=O)Nc1ccc(C(=O)Nc2[nH]nc3c2CN(C(=O)N[C@H](CN(C)C)c2ccccc2)C3(C)C)cc1 [YKL-5-124]; assay: as above
[3] = compound: CN(C)C(=O)c1cc2cnc(Nc3ccc(N4CCNCC4)cn3)nc2n1C1CCCC1 [LEE011/Ribociclib]; assay: as above
[4] = compound: CC(=O)c1c(C)c2cnc(Nc3ccc(N4CCN(CCOCCOCCOCCNC(=O)COc5cccc6c5C(=O)N(C5CCC(=O)NC5=O)C6=O)CC4)cn3)nc2n(C2CCCC2)c1=O [BSJ-03-123]; assay: as above
[5] = compound: T1, CN1CC[C@H](c2c(O)cc(O)c3c(=O)cc(-c4ccccc4Cl)oc23)[C@H](O)C1 [Flavopiridol]; assay: as above
[6] = compound: CN(C)C/C=C/C(=O)Nc1ccc(C(=O)N2CCC[C@@H](Nc3ncc(Cl)c(-c4c[nH]c5ccccc45)n3)C2)cc1 [THZ531]; assay: as above
[7] = compound: T1, Flavopiridol
[8] = compound: CO[C@@H](C)Cn1c(=O)n(C)c2cnc3ccc(-c4cncc(C(C)(C)O)c4)cc3c21
[9] = compound: CCN1CCN(Cc2ccc(Nc3ncc(F)c(-c4cc(F)c5nc(C)n(C(C)C)c5c4)n3)nc2)CC1; assay: GR value, 72 h; higher = faster growth (1 = untreated, <0 = killing);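 further: breast cancer and non-malignant breast epithelial lines, nine half-log doses, viable cells counted by Hoechst and LIVE/DEAD dye imaging versus time-zero plates and DMSO controls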
[10] = compound: CCOc1cc2ncc(C#N)c(Nc3ccc(OCc4ccccn4)c(Cl)c3)c2cc1NC(=O)/C=C/CN(C)C [Neratinib/HKI272]; assay: as above
[11] = compound: CC(=O)c1c(C)c2cnc(Nc3ccc(N4CCNCC4)cn3)nc2n(C2CCCC2)c1=O; assay: as above
[12] = compound: CCc1cnn2c(NCc3ccc[n+]([O-])c3)cc(N3CCCC[C@H]3CCO)nc12; assay: as above
[13] = compound: CN(C)CC[C@H](CSc1ccccc1)Nc1ccc(S(=O)(=O)NC(=O)c2ccc(N3CCN(Cc4ccccc4-c4ccc(Cl)cc4)CC3)cc2)cc1[N+](=O)[O-] [ABT-737]
[14] = compound: CN1CCN(CCOc2cc(OC3CCOCC3)c3c(Nc4c(Cl)ccc5c4OCO5)ncnc3c2)CC1 [Saracatinib/AZD0530]
[15] = compound: Cc1nc(-c2cn3c(n2)-c2ccc(-c4cnn(C(C)(C)C(N)=O)c4)cc2OCC3)n(C(C)C)n1 [Taselisib/GDC0032]
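Wherever GR50, 72 h is given: breast cancer and non-malignant breast epithelial cell lines, Deep Dye Drop or Dye Drop imaging, nine half-log doses, GR normalized to time-zero plates and DMSO-only controls.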

PDX1206
GR value ([1]; 0.0001 µM): 1.05 GR
GR value ([1]; 0.0003162 µM): 1.03 GR
GR value ([1]; 0.001 µM): 0.987 GR
GR value ([1]; 0.003162 µM): 0.977 GR
GR value ([1]; 0.01 µM): 0.933 GR
GR value ([1]; 0.03162 µM): 0.351 GR
GR value ([1]; 0.1 µM): -0.278 GR
GR value ([1]; 0.3162 µM): -0.408 GR
GR value ([1]; 1 µM): -0.536 GR
GR value ([2]; 0.001 µM): 0.821 GR
GR value ([2]; 0.003162 µM): 0.683 GR
GR value ([2]; 0.01 µM): 0.588 GR
GR value ([2]; 0.03162 µM): 0.519 GR
GR value ([2]; 0.1 µM): 0.461 GR
GR value ([2]; 0.3162 µM): 0.444 GR
GR value ([2]; 1 µM): 0.323 GR
GR value ([2]; 3.162 µM): 0.205 GR
GR value ([2]; 10 µM): -0.502 GR
GR value ([3]; 0.001 µM): 0.899 GR
GR value ([3]; 0.003162 µM): 0.915 GR
GR value ([3]; 0.01 µM): 0.885 GR
GR value ([3]; 0.03162 µM): 0.915 GR
GR value ([3]; 0.1 µM): 0.758 GR
GR value ([3]; 0.3162 µM): 0.817 GR
GR value ([3]; 1 µM): 0.998 GR
GR value ([3]; 3.162 µM): 0.753 GR
GR value ([3]; 10 µM): 0.685 GR
GR value ([4]; 0.001 µM): 1.02 GR
GR value ([4]; 0.003162 µM): 0.915 GR
GR value ([4]; 0.01 µM): 0.885 GR
GR value ([4]; 0.03162 µM): 0.967 GR
GR value ([4]; 0.1 µM): 0.904 GR
GR value ([4]; 0.3162 µM): 0.912 GR
GR value ([4]; 1 µM): 0.782 GR
GR value ([4]; 3.162 µM): 0.726 GR
GR value ([4]; 10 µM): -0.109 GR
GR value ([5]; 0.0001 µM): 1.09 GR
GR value ([5]; 0.0003162 µM): 0.867 GR
GR value ([5]; 0.001 µM): 0.803 GR
GR value ([5]; 0.003162 µM): 0.812 GR
GR value ([5]; 0.01 µM): 1.03 GR
GR value ([5]; 0.03162 µM): 0.485 GR
GR value ([5]; 0.1 µM): 0.393 GR
GR value ([5]; 0.3162 µM): -0.402 GR
GR value ([5]; 1 µM): -0.571 GR
GR value ([6]; 0.0001 µM): 1.14 GR
GR value ([6]; 0.0003162 µM): 0.992 GR
GR value ([6]; 0.001 µM): 1.01 GR
GR value ([6]; 0.003162 µM): 1.05 GR
GR value ([6]; 0.01 µM): 1.02 GR
GR value ([6]; 0.03162 µM): 0.9 GR
GR value ([6]; 0.1 µM): -0.371 GR
GR value ([6]; 0.3162 µM): -0.273 GR
GR value ([6]; 1 µM): -0.29 GR
GR50, 72 h [7]: 0.0514 µM
GR50, 72 h [8]: 0.00134 µM

MDAMB157
GR value ([9]; 0.001 µM): 1.01 GR
GR value ([9]; 0.003162 µM): 1.08 GR
GR value ([9]; 0.01 µM): 0.993 GR
GR value ([9]; 0.03162 µM): 0.928 GR
GR value ([9]; 0.1 µM): 0.913 GR
GR value ([9]; 0.3162 µM): 0.727 GR
GR value ([9]; 1 µM): 0.578 GR
GR value ([9]; 3.162 µM): 0.441 GR
GR value ([9]; 10 µM): -0.587 GR
GR value ([10]; 0.0003162 µM): 1.03 GR
GR value ([10]; 0.001 µM): 0.981 GR
GR value ([10]; 0.003162 µM): 1.04 GR
GR value ([10]; 0.01 µM): 1 GR
GR value ([10]; 0.03162 µM): 0.921 GR
GR value ([10]; 0.1 µM): 0.842 GR
GR value ([10]; 0.3162 µM): 0.708 GR
GR value ([10]; 1 µM): 0.445 GR
GR value ([10]; 3.162 µM): 0.151 GR
GR value ([11]; 0.0003162 µM): 0.945 GR
GR value ([11]; 0.001 µM): 0.976 GR
GR value ([11]; 0.003162 µM): 0.969 GR
GR value ([11]; 0.01 µM): 1.08 GR
GR value ([11]; 0.03162 µM): 1.02 GR
GR value ([11]; 0.1 µM): 1.02 GR
GR value ([11]; 0.3162 µM): 0.965 GR
GR value ([11]; 1 µM): 1.05 GR
GR value ([11]; 3.162 µM): 0.991 GR
GR value ([12]; 0.0001 µM): 1.07 GR
GR value ([12]; 0.0003162 µM): 1.05 GR
GR value ([12]; 0.001 µM): 1.06 GR
GR value ([12]; 0.003162 µM): 0.982 GR
GR value ([12]; 0.01 µM): 0.929 GR
GR value ([12]; 0.03162 µM): -0.488 GR
GR value ([12]; 0.1 µM): -0.86 GR
GR value ([12]; 0.3162 µM): -0.899 GR
GR value ([12]; 1 µM): -0.915 GR
GR50, 72 h [13]: 6.41 µM
GR50, 72 h [14]: 5.23 µM
GR50, 72 h [15]: 1.36 µM

— the supplement of paper PMC9663587
